Assay results as given in PubChem BioAssay AID2060909 (Molecular Pharmacology Branch, DTP, NCI, 2025).
“And” between values parts separate entries of the source, which are not always exact repeats. Identical values can stand only once.

Test system: 362531-283-R-J2-PDC complex spheroid viability
Assay: Anticancer human tumor 362531-283-R-J2-PDC patient-derived colon adenocarcinoma cell line growth inhibition [RAS]
Conditions: for viability, T/C: stronger effect = lower value
Method in brief: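 Tumour cells grown as complex spheroids with HUVEC endothelial cells and mesenchymal stem cells, treated with RAS pathway inhibitor combinations. Each agent spans half-log steps from near clinical Cmax, or 10 microM where Cmax is unknown.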

[1] = curve of first compound, second compound 0.000949 µM
[2] = curve of first compound, second compound 0.003 µM
[3] = curve of first compound, second compound 0.00949 µM
[4] = curve of first compound, second compound 0.03 µM
[5] = curve of first compound, second compound 0.0949 µM
[6] = curve of first compound, second compound 0.3 µM
[7] = second compound 0.000949 µM, first compound 0.000949 µM
[8] = second compound 0.000949 µM, first compound 0.003 µM
[9] = second compound 0.000949 µM, first compound 0.00949 µM
[10] = second compound 0.000949 µM, first compound 0.03 µM
[11] = second compound 0.000949 µM, first compound 0.0949 µM
[12] = second compound 0.000949 µM, first compound 0.3 µM
[13] = second compound 0.003 µM, first compound 0.000949 µM
[14] = second compound 0.003 µM, first compound 0.003 µM
[15] = second compound 0.003 µM, first compound 0.00949 µM
[16] = second compound 0.003 µM, first compound 0.03 µM
[17] = second compound 0.003 µM, first compound 0.0949 µM
[18] = second compound 0.003 µM, first compound 0.3 µM
[19] = second compound 0.00949 µM, first compound 0.000949 µM
[20] = second compound 0.00949 µM, first compound 0.003 µM
[21] = second compound 0.00949 µM, first compound 0.00949 µM
[22] = second compound 0.00949 µM, first compound 0.03 µM
[23] = second compound 0.00949 µM, first compound 0.0949 µM
[24] = second compound 0.00949 µM, first compound 0.3 µM
[25] = second compound 0.03 µM, first compound 0.000949 µM
[26] = second compound 0.03 µM, first compound 0.003 µM
[27] = second compound 0.03 µM, first compound 0.00949 µM
[28] = second compound 0.03 µM, first compound 0.03 µM
[29] = second compound 0.03 µM, first compound 0.0949 µM
[30] = second compound 0.03 µM, first compound 0.3 µM
[31] = second compound 0.0949 µM, first compound 0.000949 µM
[32] = second compound 0.0949 µM, first compound 0.003 µM
[33] = second compound 0.0949 µM, first compound 0.00949 µM
[34] = second compound 0.0949 µM, first compound 0.03 µM
[35] = second compound 0.0949 µM, first compound 0.0949 µM
[36] = second compound 0.0949 µM, first compound 0.3 µM
[37] = second compound 0.3 µM, first compound 0.000949 µM
[38] = second compound 0.3 µM, first compound 0.003 µM
[39] = second compound 0.3 µM, first compound 0.00949 µM
[40] = second compound 0.3 µM, first compound 0.03 µM
[41] = second compound 0.3 µM, first compound 0.0949 µM
[42] = second compound 0.3 µM, first compound 0.3 µM
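Further: spheroids exposed to the agents for 7 days before readout.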
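Wherever viability, T/C is given: luminescence viability as percent of DMSO vehicle control wells.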

CC(C)n1nc(-c2ccc3oc(N)nc3c2)c2c(N)ncnc21
viability, T/C (compound 0.000316 µM): 103% [middle of 4 runs] | viability, T/C (compound 0.001 µM): 99.1% [middle of 4 runs] | viability, T/C (compound 0.00316 µM): 101% [middle of 4 runs] | viability, T/C (compound 0.0316 µM): 63.5% [middle of 4 runs] | IC50 (curve of compound): 53.9 nM and > 100 nM and 75.8 nM

CC1(C)CCC(Nc2ncc(C(F)(F)F)c(-c3c[nH]c4c(P(C)(C)=O)c(C#N)ccc34)n2)CN1 (stereo not drawn) + CCn1c(-c2cccnc2C(C)OC)c2c3cc(ccc31)N1CCOC(CC(NC(=O)C(C(C)C)N(C)C(=O)C3(F)CCN(C(=O)C#CC(C)(C)N(C)C)CC3)C(=O)N3CCCC(N3)C(=O)OCC(C)(C)C2)C1
IC50 [1]: > 300 nM | IC50 [2]: > 300 nM | IC50 [3]: > 300 nM | IC50 [4]: > 300 nM | IC50 [5]: > 300 nM | IC50 [6]: > 300 nM | viability, T/C [7]: 105% | viability, T/C [8]: 99.2% | viability, T/C [9]: 102% | viability, T/C [10]: 98.3% | viability, T/C [11]: 108% | viability, T/C [12]: 99.1% | viability, T/C [13]: 110% | viability, T/C [14]: 99.3% | viability, T/C [15]: 98% | viability, T/C [16]: 92.6% | viability, T/C [17]: 107% | viability, T/C [18]: 89.1% | viability, T/C [19]: 97.5% | viability, T/C [20]: 102% | viability, T/C [21]: 87.3% | viability, T/C [22]: 105% | viability, T/C [23]: 102% | viability, T/C [24]: 104% | viability, T/C [25]: 98.5% | viability, T/C [26]: 110% | viability, T/C [27]: 95.9% | viability, T/C [28]: 98.9% | viability, T/C [29]: 100% | viability, T/C [30]: 91.3% | viability, T/C [31]: 86.8% | viability, T/C [32]: 99.5% | viability, T/C [33]: 103% | viability, T/C [34]: 95.2% | viability, T/C [35]: 103% | viability, T/C [36]: 107% | viability, T/C [37]: 96.8% | viability, T/C [38]: 102% | viability, T/C [39]: 94.1% | viability, T/C [40]: 98.5% | viability, T/C [41]: 101% | viability, T/C [42]: 94.9%

Cc1nc(N2CCC3(CC2)COC(C)C3N)c(CO)nc1Sc1ccnc(N)c1Cl (stereo not drawn) + CCn1c(-c2cc(N3CCN(C)CC3)cnc2C(C)OC)c2c3cc(ccc31)-c1csc(n1)CC(NC(=O)C1CC1C)C(=O)N1CCCC(N1)C(=O)OCC(C)(C)C2
IC50 [1]: > 10000 nM | IC50 [2]: > 10000 nM | IC50 [3]: 7340 nM | IC50 [4]: 1870 nM | IC50 [5]: 529 nM | IC50 [6]: < 31.6 nM | viability, T/C (second compound 0.000949 µM, first compound 0.0316 µM): 95.4% | viability, T/C (second compound 0.000949 µM, first compound 0.1 µM): 122% | viability, T/C (second compound 0.000949 µM, first compound 0.316 µM): 89% | viability, T/C (second compound 0.000949 µM, first compound 1 µM): 93.7% | viability, T/C (second compound 0.000949 µM, first compound 3.16 µM): 86.4% | viability, T/C (second compound 0.000949 µM, first compound 10 µM): 70.5% | viability, T/C (second compound 0.003 µM, first compound 0.0316 µM): 103% | viability, T/C (second compound 0.003 µM, first compound 0.1 µM): 113% | viability, T/C (second compound 0.003 µM, first compound 0.316 µM): 94.8% | viability, T/C (second compound 0.003 µM, first compound 1 µM): 89.6% | viability, T/C (second compound 0.003 µM, first compound 3.16 µM): 92.8% | viability, T/C (second compound 0.003 µM, first compound 10 µM): 72.4% | viability, T/C (second compound 0.00949 µM, first compound 0.0316 µM): 104% | viability, T/C (second compound 0.00949 µM, first compound 0.1 µM): 113% | viability, T/C (second compound 0.00949 µM, first compound 0.316 µM): 84.7% | viability, T/C (second compound 0.00949 µM, first compound 1 µM): 88.9% | viability, T/C (second compound 0.00949 µM, first compound 3.16 µM): 88% | viability, T/C (second compound 0.00949 µM, first compound 10 µM): 37.1% | viability, T/C (second compound 0.03 µM, first compound 0.0316 µM): 102% | viability, T/C (second compound 0.03 µM, first compound 0.1 µM): 104% | viability, T/C (second compound 0.03 µM, first compound 0.316 µM): 74.3% | viability, T/C (second compound 0.03 µM, first compound 1 µM): 68.9% | viability, T/C (second compound 0.03 µM, first compound 3.16 µM): 36.9% | viability, T/C (second compound 0.03 µM, first compound 10 µM): 7.23% | viability, T/C (second compound 0.0949 µM, first compound 0.0316 µM): 77.7% | viability, T/C (second compound 0.0949 µM, first compound 0.1 µM): 77% | viability, T/C (second compound 0.0949 µM, first compound 0.316 µM): 65.2% | viability, T/C (second compound 0.0949 µM, first compound 1 µM): 30.9% | viability, T/C (second compound 0.0949 µM, first compound 3.16 µM): 8.1% | viability, T/C (second compound 0.0949 µM, first compound 10 µM): 4.24% | viability, T/C (second compound 0.3 µM, first compound 0.0316 µM): 47.3% | viability, T/C (second compound 0.3 µM, first compound 0.1 µM): 37.8% | viability, T/C (second compound 0.3 µM, first compound 0.316 µM): 18.9% | viability, T/C (second compound 0.3 µM, first compound 1 µM): 6.49% | viability, T/C (second compound 0.3 µM, first compound 3.16 µM): 5.54% | viability, T/C (second compound 0.3 µM, first compound 10 µM): 3.65%

CCc1c2c(nc3ccc(O)cc13)-c1cc3c(c(=O)n1C2)COC(=O)[C@]3(O)CC + CCn1c(-c2cc(N3CCN(C)CC3)cnc2C(C)OC)c2c3cc(ccc31)-c1csc(n1)CC(NC(=O)C1CC1C)C(=O)N1CCCC(N1)C(=O)OCC(C)(C)C2
IC50 [1]: 42.1 nM | IC50 [2]: 37.8 nM | IC50 [3]: 41.4 nM | IC50 [4]: 35.8 nM | IC50 [5]: 14.4 nM | IC50 [6]: < 0.949 nM | viability, T/C [7]: 94.3% | viability, T/C [8]: 90.9% | viability, T/C [9]: 80.9% | viability, T/C [10]: 61.4% | viability, T/C [11]: 26.2% | viability, T/C [12]: 16.4% | viability, T/C [13]: 97.5% | viability, T/C [14]: 99.7% | viability, T/C [15]: 75.1% | viability, T/C [16]: 61.8% | viability, T/C [17]: 23.4% | viability, T/C [18]: 19.2% | viability, T/C [19]: 101% | viability, T/C [20]: 97.1% | viability, T/C [21]: 74.4% | viability, T/C [22]: 63.6% | viability, T/C [23]: 26.9% | viability, T/C [24]: 12.6% | viability, T/C [25]: 94.3% | viability, T/C [26]: 89.1% | viability, T/C [27]: 69.4% | viability, T/C [28]: 59.5% | viability, T/C [29]: 25.3% | viability, T/C [30]: 7.44% | viability, T/C [31]: 76.8% | viability, T/C [32]: 65.3% | viability, T/C [33]: 61.4% | viability, T/C [34]: 33.8% | viability, T/C [35]: 14.2% | viability, T/C [36]: 5.26% | viability, T/C [37]: 33.5% | viability, T/C [38]: 45.4% | viability, T/C [39]: 17.2% | viability, T/C [40]: 13.4% | viability, T/C [41]: 5.23% | viability, T/C [42]: 2.69%

CCn1c(-c2cccnc2C(C)OC)c2c3cc(ccc31)N1CCOC(CC(NC(=O)C(C(C)C)N(C)C(=O)C3(F)CCN(C(=O)C#CC(C)(C)N(C)C)CC3)C(=O)N3CCCC(N3)C(=O)OCC(C)(C)C2)C1 (stereo not drawn)
viability, T/C (compound 0.000949 µM): 103% [middle of 8 runs] | viability, T/C (compound 0.003 µM): 102% [middle of 8 runs] | viability, T/C (compound 0.00949 µM): 107% [middle of 8 runs] | viability, T/C (compound 0.03 µM): 103% [middle of 8 runs] | viability, T/C (compound 0.0949 µM): 104% [middle of 8 runs] | viability, T/C (compound 0.3 µM): 100% [middle of 8 runs] | IC50 (compound alone, run of 07/09/2024): > 300 nM
